Laboratory results reported in US20090215713A1, “Use of atp for the manufacture of a medicament for the prevention and treatment of oxidative stress and related conditions” (priority 2004, published 2009).

Legend:
[1] = ATP infusions in patients with chronic fatigue syndrome (double-blind); assay type: in vivo, human
Description: Patients with different diseases received infusions of 10-75 μg/kg·min over 8-24 h, at intervals of 1-4 weeks in different randomized clinical trials. In all cases, the first. infusion was given under clinical supervision, subsequent infusions were given in the setting of private homes. Preliminary results in small numbers of patients with persistent rheumatoid arthritis, chronic fatigue syndrome, and cancer in the pre-terminal stage, and lung cancer during curative radiotherapy are given below.
In a double-blind design, 8 out of 9 patients with chronic fatigue syndrome who had been treated with ATP (8 infusions of 24 h), spontaneously reported the following unexpected beneficial effects of ATP infusion: • less pain on the day after the infusion • feeling better during the 8-week infusion period than before or afterwards • more physical energy on the day after the infusion • felt better during the complete infusion period: less pain, better performance status, happier, mentally stronger, less tired, sleeping better • fewer ulcers during the infusion period • feeling less weak/feeble on the day after the infusion, feeling muscles “in a positive sense” In 5 out of 9 patients, these effects were already noted on the day after the first ATP infusion. […] In the placebo group, not even one out of 9 patients spontaneously reported any of such improvements.

[2] = cited from earlier work
IL-10 = experiment: LPS+PHA-induced IL-10 secretion in whole blood under oxidative stress (H2O2); assay type: cell-based, human
Description: FIG. 11 Effect of ATP on LPS+PHA-induced IL-10 secretion in whole blood from healthy subjects under conditions of oxidative stress. Two concentrations of H2O2 (1 and 10 mM) were added to whole blood, together with the indicated concentrations of ATP. Then, blood was exposed to 10 μg/ml LPS and 1 μg/ml PHA, and incubated for 24 h. The IL-10 released into the supernatants was analyzed using the ELISA method. […] Data are expressed as the mean values; error bars represent SEM.
Whole blood of healthy subjects was collected as described for Experiment 2, and pre-incubated with 1 or 10 mM H2O2 at 5% CO2 and 37° C. for 15 min. Then, ATP was added to the blood at final concentrations of 1-300 μM for the 30 min incubation step, and then incubated as in Experiment 2 with LPS/PHA for 24 hours.

[3] = ESR measurement of DMPO—OH spin adducts during Fenton chemistry; assay type: biochemical
Description: The effect of ATP on the formation or scavenging of hydroxyl radicals, generated by Fenton reagents was measured as DMPO—OH spin adducts in ESR spectra. The ESR studies were performed at room temperature using a Bruker EMX 1273 spectrometer equipped with an ER 4119HS high sensitivity cavity and 12 kW power supply. The following instrument conditions were used: scan range, 60 G; center magnetic field, 3490 G; modulation amplitude, 1.0 G; microwave frequency, 9.86 GHz; time constant, 40.96 ms, scan time, 20.48 ms; number of scans, 50. OH radicals were generated by the Fenton reaction, and 5,5-dimethyl-1-pyrroline N-oxide (DMPO) was used for trapping hydroxyl radicals. Fifty microliters of 10 mM H2O2, 50 μl of 250 mM DMPO, 50 μl milliQ, 50 μl milliQ (control) or sample, and 50 μl 5 mM FeSO4/5 mM EDTA were mixed, and then transferred to a capillary glass tube. After 2 minutes, DMPO—OH spin adducts were measured by ESR. Quantification of the spectra was performed by peak integration using the WIN-EPR spectrum manipulation program.
Electron spin resonance (ESR) studies were performed at room temperature using a Bruker EMX 1273 spectrometer equipped with an ER 4119HS high sensitivity cavity and 12 kW power supply. The following instrument conditions were used: scan range, 60 G; center magnetic field, 3490 G; modulation amplitude, 1.0 G; microwave frequency, 9.86 GHz; time constant, 40.96 ms, scan time, 20.48 ms; number of scans, 50. OH radicals were generated by the Fenton reaction, and 5,5-Dimethyl-1-pyrroline N-oxide (DMPO) was used for trapping hydroxyl radicals. Fifty microliters of 10 mM H2O2, 50 μl 250 mM DMPO, 50 μl milliQ, 50 μl milliQ (blanco) or sample and 50 μl 5 mM FeSO4/5 mM EDTA were mixed, transferred to a capillary glass tube and the DMPO—OH spin adducts were measured after 2 minutes by ESR. Quantification of the spectra (in arbitrary units) was performed by peak integration using the WIN-EPR spectrum manipulation program.

For `Nc1ncnc2c1ncn2[C@@H]1O[C@H](COP(=O)(O)OP(=O)(O)OP(=O)(O)O)[C@@H](O)[C@H]1O` [ATP, Adenosine 5′-triphosphate], the “patients spontaneously reporting beneficial effects” value ([1]; 8 infusions of 24 h) is listed as 8 out of 9, the “patients noting these effects on the day after the first ATP infusion” value ([1]; human, in vivo) is listed as 5 out of 9 and the “effect on plasma levels of pro- or anti-inflammatory cytokines” value ([2]; Swennen et al. 2004) is listed as “neither an effect”. For the same molecule, the “loss of weight and muscle mass compared to a control group” value ([2]; regular infusions) was “inhibited”, the “increase in IL-10 release” value (IL-10; 300 μM ATP, 1 or 10 mM H2O2, LPS-PHA) was 50-60% and the “effect on LPS+PHA-induced IL-10 release” value (IL-10; 1 or 10 mM H2O2) was “significantly increased”. For the same molecule, the “effect on DMPO—OH spin adduct formation” value ([3]; 100 μM) was “significant inhibition”, the “inhibition of the DMPO—OH spin adduct formation” value ([3]; highest concentration used (range 0.1 mM-10 mM)) was 80% and ≈ 80% and the “effect on DMPO—OH spin adduct formation vs control (buffer)” value ([3]; representative ESR spectra, FIG. 1) was “strongly inhibited”.
